“Also recorded” adds a separate entry of the source.
Assays:
[1] = tested on: subject with major neurocognitive disorder of the Alzheimer type, APOE4 homozygous; test: Compassionate use study (Expanded Access IND), clinical response and tolerability; format: in vivo, human; details: n=1
Experimental: A subject who received a diagnosis of major neurocognitive disorder of the Alzheimer type was treated with ALZ-801 as part of a compassionate use study. The subject was a APOE4 homozygous and had received standard cognitive enhancing medications and was enrolled in a trial of an amyloid immunotherapy agent, but without benefit, and had no treatment options.
The subject was orally administered ALZ-801 at a dose of 265 mg BID for approximately 14 months (61 weeks, 2 days). […] For example, their motor skills improved as they made efforts to brush their teeth, get dressed, and bathe […]. They also were able to hold a phone to their […] and was walking and eating better. They were not able or willing to do the above prior to treatment with 265 mg BID ALZ-801. Further, their mood was noticeably more cheerful and content, and their verbal communication advanced. However, by the later end of the first 12-months of treatment, the improvement in the subject's symptoms plateaued and there was a decline in their cognitive status. They became apathetic, less verbal, and could no longer follow instructions.
At 62 weeks, 6 days of treatment, the dosage of ALZ-801 was increased from 265 mg BID to 265 mg TID. Remarkably, their plateau and decline in cognition ended upon commencement of the 265 mg TID dosage regimen. They were more talkative, happier, and not only completed the tasks they accomplished while on 265 mg BID ALZ-801, but improved beyond that. They understand the context of conversation and behave in a more “normal” or “natural” manner. […] A similar plateau or decline in cognitive status as observed with an ALZ-801 dosage of 265 mg BID began to manifest approximately 12 months after the beginning of the 265 mg TID ALZ-801 dosing. The subject remained on 265 mg TID ALZ-801 for approximately three more months (15 months total) until their dosage was increased to 265 mg QID (four time a day) ALZ-801, which they have maintained for the past seven months. […] Their caretakers have noted that the patient's disposition and alertness has improved, they are more responsive, more cooperative and has improved interaction with the caretakers.

[2] = Steady-state plasma tramiprosate pharmacokinetics, expanded access subject, TID and QID; format: in vivo, human; details: BID vs TID vs QID, 265 mg per dose
Description: The steady state pharmacokinetics of the TID and QID dosing regimen in the patient has been assayed for area under the curve (AUC) and maximum concentration (Cmax) of plasma tramiprosate (the active form of ALZ-801) and compared to BID dosing values in a population of patients in a Phase 2 human clinical trial of ALZ-801. Once the patient reaches steady state on a particular dosing regimen (any time after day 7 of a particular dosing regimen), a blood sample was collected just prior to the administration of a dose of AZL-801 and then again at 1, 2 and 4 hours post-administration of that dose. Plasma was isolated from the sample by centrifugation and the plasma samples were frozen and shipped to a bioanalytical lab for determination of tramiprosate concentrations (active moiety of ALZ-801) and calculation of AUC and Cmax. The values obtained from the plasma were then used to calculate projected brain AUC.

In the case of `CC(C)[C@H](N)C(=O)NCCCS(=O)(=O)O` [ALZ-801, valyl-3-amino-1-propanesulfonic acid], the “duration of improvement and stabilization before plateau/decline” value ([1]; oral 265 mg BID) is reported as “about 58 weeks”, the “tolerability / side effects” value ([1]; oral 265 mg QID) is reported as “well-tolerated with no associated nausea or noticeable side effects; also recorded: well tolerated” and the “time to plateau or decline in cognitive status after start of dosing” value ([1]; oral 265 mg TID) is reported as “approximately 12 months”. The “tolerability / side effects” value ([1]; oral 265 mg TID) was “without out noticeable side effects; also recorded: well-tolerated” and the “dose proportionality of plasma AUC and Cmax (tramiprosate)” value [2] was “dose proportional increases in plasma AUC and Cmax”.

— patent publication US20250041248A1, “ALZ-801 FOR USE IN TREATING ALZHEIMER'S DISEASE” (Alzheon, Inc., priority 2021, published 2025)
